Laboratory results as given in patent publication US12331058B2, “SHP2 and CDK4/6 dual-target inhibitory compound and pharmaceutical composition containing the same” (CHINA PHARMACEUTICAL UNIVERSITY, priority 2021, dated 2025).
Like-named read-outs stand apart in the source and are kept apart here.

Legend:
[1] = target: CDK4 (Homo sapiens, UniProt P11802); test: CDK4 enzyme activity test in vitro; assay type: biochemical; conditions: Caliper EZ Reader II conversion
Experimental: CDK4 Enzyme Activity Test In Vitro
(§7) The compound is dissolved in 100% DMSO to prepare into a 30 mM storage solution, which is stored in −20° C. refrigerator in the dark.
(1) 1×Kinase buffer is prepared.
(2) The preparation of concentration gradient of the compound: tested compound is tested at an initial concentration of 30000 nM according to a customer's request, diluted into a 100% DMSO solution at a 100-fold final concentration in a 384 source plate, diluted by 3-fold with 10 concentrations, 250 nL of compound with a 100-fold final concentration is transferred to the target plate of 384-well-plate by using a dispenser Echo 550.
(3) A Kinase solution with a 2.5-fold final concentration is prepared by using a 1×Kinase buffer.
(4) 10 μL of kinase solution with a 2.5-fold final concentration is added to the compound wells and the positive control wells, respectively; 10 μL of 1×Kinase buffer is added to the negative control wells.
(5) The kinase solution is centrifugated at 1000 rpm for 30 seconds, and incubated at the room temperature for 10 minutes after the reaction plate is shaken and mixed uniformly.
(7) The reaction is initiated by adding 15 μL of the mixed solution of ATP and substrate at a 5/3-fold final concentration.
(8) The 384-well plate is centrifuged at 1000 rpm for 30 seconds, and incubated at the room temperature for 180 minutes after shaking and mixing uniformly.
(9) The kinase reaction is terminated by adding 30 μL of termination detection solution, centrifuged at 1000 rpm for 30 seconds with shaking and mixing uniformly.
(10) The conversion is read by using Caliper EZ Reader II.
Calculation Formula is as follows:
Conversion %_sample denotes a conversion reading of the sample; Conversion % min denotes an average value for negative control wells, represents a conversion reading without enzyme wells; Convesion %_max denotes an average value for positive control wells, represents a conversion reading without compound inhibition wells.

[2] = target: T1, SHP2 (Homo sapiens, UniProt Q06124); test: SHP2 enzyme activity test in vitro;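 also: IC50 derived by variable-slope curve fitting of percent inhibition of SHP2 enzymatic activity plotted against log compound concentration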
T1 sequence (Q06124 1-593): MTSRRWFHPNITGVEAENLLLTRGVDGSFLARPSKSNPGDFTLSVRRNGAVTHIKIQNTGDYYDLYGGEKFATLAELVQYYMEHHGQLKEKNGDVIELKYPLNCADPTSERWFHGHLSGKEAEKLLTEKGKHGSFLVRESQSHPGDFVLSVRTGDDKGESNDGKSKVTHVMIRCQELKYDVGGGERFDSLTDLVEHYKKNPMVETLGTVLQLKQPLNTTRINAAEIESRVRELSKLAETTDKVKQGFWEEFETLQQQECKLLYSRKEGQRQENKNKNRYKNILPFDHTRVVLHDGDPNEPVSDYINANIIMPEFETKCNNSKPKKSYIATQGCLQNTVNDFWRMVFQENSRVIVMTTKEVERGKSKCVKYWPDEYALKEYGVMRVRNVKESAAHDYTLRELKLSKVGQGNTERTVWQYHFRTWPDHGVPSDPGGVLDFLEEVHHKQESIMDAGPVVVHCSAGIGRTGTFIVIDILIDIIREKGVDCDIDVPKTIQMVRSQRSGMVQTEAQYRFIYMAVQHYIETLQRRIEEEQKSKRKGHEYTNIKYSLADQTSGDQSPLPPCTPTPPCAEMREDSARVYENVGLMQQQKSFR
Experimental: SHP2 Enzyme Activity Test In Vitro
SHP2 enzyme activity of the compounds in the above examples are tested as follows.
as §7
The log value for concentration is taken as X-axis and the percent inhibition is taken as Y-axis, and the log (inhibitor) vs. response variable slope of the analysis software GraphPad Prism 5 is used to fit the dose-response curve to obtain the IC50 values for each compound on enzyme activity.

[3] = test system: MDA-MB-231 cells; test: In vitro antiproliferative activity (MTT), MDA-MB-231; assay type: cell-based; conditions: Homo sapiens, MDA-MB-231, 72 h, 3 days of incubation
Experimental: (§1) In Vitro Antiproliferative Activity of Compound 1. Experimental Procedure
(§2) (4) MDA-MB-231, MDA-MB-468 or EMT6 cells are taken out of a liquid nitrogen tank, immediately placed in a constant temperature water bath at 37° C. and melted by shaking, then the cells are poured into a culture flask. The culture solution (containing 10% of fetal bovine serum) is added for dilution. The diluted culture medium is transferred into a centrifuge tube, centrifuged at 1000 r/min for 5 minutes. The supernatant is discarded and fresh culture medium is added for blowing and mixing uniformly. The mixture is transferred into a culture bottle, and cultured in a culture box with a concentration of 5% CO2 at 37° C. When the cells are adhered to the wall and almost fully paved at the bottle bottom, the passage begins. A little amount of fresh culture medium (containing 10% of fetal calf serum) is added to terminate the digestion. The liquid in the culture bottle is poured out, and the culture bottle is washed twice with PBS. The fresh culture medium is added to blow and mix uniformly, and divided evenly into two culture bottles for continuing the culture.
(§3) (5) Cells in the logarithmic phase are taken, and the old culture medium are poured out. The trypsin solution is added for digestion for 3 minutes, and the fresh culture medium containing 10% of fetal bovine serum is added for terminating digestion. The solution is transferred into a centrifuge tube, centrifuged at 1000 r/min for 5 minutes, and the supernatant is discarded. The cells are counted by adding a medium to prepare into a cell suspension. After counting, cells are seeded in 96-well plates at a cell concentration of 5000-10000 cells per well. The 96-well plate with the spread cells is placed in a 5% CO2 incubator at 37° C. for a continuous culture for 24 hours. The drugs are diluted in gradient to 90μ mol/L, 30μ mol/L, 10μ mol/L, […], 0.37μ mol/L with medium and then added to 96-well plates at 100 μL per well, with three multiplex wells per concentration. The control group is added with medium containing solvent with the corresponding concentration, the zeroing hole is added with blank medium with the same volume, and the blank medium is placed in a culture box with 5% CO2 and 37° C. for 3 days of incubation with a replacement of the medium every two days. 20 μL of MTT (5 mg/mL) is added to each well. After mixing uniformly, the mixture is incubated in a 5% CO2 incubator at 37° C. for 4 hours in the absence of light. With a removement of the liquid in the 96-well plate and an addition of 150 μl of DMSO to each well, the mixture is placed on a micro-shaker and shaken to completely dissolve the crystals at the bottom. Subsequently, the 96-well plate is placed in an microplate reader for detection and the absorbance is measured at 490 nm.
(§4) Curve is drawn and inhibition rate of drug to cell and IC50 are calculated. Inhibition ratio=[(average OD value for control group-average OD value for experimental group)/(average OD value for control group-average OD value for blank control group)]×100%. 3. Experimental Results
(§5) The inhibitory activities of the compounds on MDA-MB-231, MDA-MB-468 and EMT6 cell lines are as follows: […]

[4] = test system: MDA-MB-468 cells; test: In vitro antiproliferative activity (MTT), MDA-MB-468; assay type: cell-based; conditions: Homo sapiens, MDA-MB-468, 72 h, 3 days of incubation
Experimental: as §1, §2, §3, §4, §5

[5] = test system: EMT6 cells; test: In vitro antiproliferative activity (MTT), EMT6; assay type: cell-based; conditions: Mus musculus, EMT6, 72 h, 3 days of incubation
Experimental: as §1, §2, §3, §4, §5

[6] = test system: SHP2 and CDK4/6; test: In vitro enzyme activity and antiproliferative activity tests (summary statement)
[7] = test system: MDA-MB-231 cells; test: Cell cycle experiment (PI flow cytometry), MDA-MB-231; assay type: cell-based; conditions: MDA-MB-231, 48 hours, compared with TNO155, Abemaciclib and their combination
Experimental: (§6) Cells are washed once with PBS and 1 mL of trypsin without EDTA (0.25%) is added. When cells change round and part of the cells are suspended, the digestion is terminated by adding PBS, subsequently, the cells are harvested and fixed in 70% ethanol (500 μL) at 4° C. for 24 hours. Cells are collected by washing with PBS and centrifuged at 1500 rpm for 5 minutes, then stained with PI/RNase in the dark at the room temperature for 30 minutes-60 minutes. After incubation, the cells are analyzed by flow cytometry. All experiments are performed 3 times.

[8] = test system: MDA-MB-468 cells; test: Cell cycle experiment (PI flow cytometry), MDA-MB-468; assay type: cell-based; conditions: MDA-MB-468, 48 hours, compared with TNO155, Abemaciclib and their combination
Experimental: as §6

Sequence of CDK4 (P11802 whole entry): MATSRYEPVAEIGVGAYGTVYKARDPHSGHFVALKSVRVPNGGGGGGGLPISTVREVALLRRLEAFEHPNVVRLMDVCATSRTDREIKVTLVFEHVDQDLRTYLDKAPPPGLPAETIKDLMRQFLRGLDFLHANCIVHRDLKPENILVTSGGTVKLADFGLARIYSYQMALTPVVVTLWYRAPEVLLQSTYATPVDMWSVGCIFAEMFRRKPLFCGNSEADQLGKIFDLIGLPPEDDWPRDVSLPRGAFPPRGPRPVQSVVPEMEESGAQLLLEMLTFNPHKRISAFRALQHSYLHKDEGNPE
Sequence of CDK4 (P30281 whole entry partner): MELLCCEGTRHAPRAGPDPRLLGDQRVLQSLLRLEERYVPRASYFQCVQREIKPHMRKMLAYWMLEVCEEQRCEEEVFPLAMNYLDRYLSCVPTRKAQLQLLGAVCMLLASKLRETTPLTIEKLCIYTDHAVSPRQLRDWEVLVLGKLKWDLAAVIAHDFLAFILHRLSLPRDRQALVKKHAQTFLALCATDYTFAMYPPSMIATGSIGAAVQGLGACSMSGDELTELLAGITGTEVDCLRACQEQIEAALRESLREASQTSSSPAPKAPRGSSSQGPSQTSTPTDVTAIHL

IC50 [1] [nM] | IC50 [2] [nM] | IC50 [3] [µM] | IC50 [4] [µM] | Compound | IC50 [5] [µM] | further results
> 1000 | > 1000 |  |  | CN(C)C(=O)c1cc2cnc(N(c3ncc4cc(C(=O)N(C)C)n(C5CCCC5)c4n3)c3nccc(Sc4cnc(N5CC[C@H](N)c6ccccc6C5)cn4)c3Cl)nc2n1C1CCCC1 [Compound 7] |  | 
> 1000 | 736 |  |  | CN(C)C(=O)c1cc2cnc(Nc3nccc(Sc4cnc(N5CC[C@H](N)c6ccccc6C5)cn4)c3Cl)nc2n1C1CCCC1 [Compound 6] |  | 
> 1000 | 57 |  |  | CN(C)C(=O)c1cc2cnc(Nc3ccc(Sc4cnc(N5CCC6(CC5)Cc5ccccc5[C@H]6N)cn4)c(Cl)c3)nc2n1C1CCCC1 [Compound 3] |  | 
11 | 216 |  |  | Cc1nc2c(F)cc(-c3nc(Nc4cnc(Sc5cnc(N6CCC7(CC6)CO[C@@H](C)[C@H]7N)cn5)c(Cl)c4)ncc3F)cc2n1C(C)C [Compound 13] |  | 
 |  | 3.2 | 10.5 | Cc1nc2c(F)cc(-c3nc(Nc4ccc(Sc5cnc(N6CCC7(CC6)CO[C@@H](C)[C@H]7N)cn5)c(Cl)c4)ncc3F)cc2n1C(C)C [Compound 23] | 1.7 | double-target inhibition activity [6]: better double-target inhibition activity; IC50 ([2]; read-out: SHP2 IC50, fluorescence Ex355/Em460, activation peptide): 61 nM
123 | 598 |  |  | Cc1nc2c(F)cc(-c3nc(Nc4ccc(Cl)c(Sc5cnc(N6CCC7(CC6)CO[C@@H](C)[C@H]7N)cn5)n4)ncc3F)cc2n1C(C)C [Compound 20] |  | 
> 1000 | > 1000 |  |  | Cc1nc2c(F)cc(-c3nc(Nc4ccc(Sc5cnc(N6CCC7(CC6)Cc6ccccc6[C@H]7N)cn5)c(Cl)n4)ncc3F)cc2n1C(C)C [Compound 24] |  | 
 |  | > 20 | > 20 | CCN1CCN(Cc2ccc(Nc3ncc(F)c(-c4cc(F)c5nc(C)n(C(C)C)c5c4)n3)nc2)CC1 [Abemaciclib, reference compound] | 4.2 | 
435 | 30 |  |  | CN(C)C(=O)c1cc2cnc(Nc3nccc(Sc4cnc(N5CCC(C)(N)CC5)cn4)c3Cl)nc2n1C1CCCC1 [Compound 4] |  | 
> 1000 | > 1000 |  |  | CN(C)C(=O)c1cc2cnc(Sc3cnc(N4CCC(C)(N)CC4)cn3)cc2n1C1CCCC1 [Compound 1] |  | 
8 | 15 | 4.6 | 9.1 | Cc1nc2c(F)cc(-c3nc(Nc4cccc(Sc5cnc(N6CCC7(CC6)CO[C@@H](C)[C@H]7N)cn5)c4Cl)ncc3F)cc2n1C(C)C [Compound 25] | 0.6 | double-target inhibition activity [6]: better double-target inhibition activity
141 | > 1000 |  |  | Cc1nc2c(F)cc(-c3nc(Nc4ccc(Sc5cnc(N6CCC7(CC6)CO[C@@H](C)[C@H]7N)cn5)c(C#N)n4)ncc3F)cc2n1C(C)C [Compound 12] |  | 
3 | 9 | 9.6 | 3.7 | Cc1nc2c(F)cc(-c3nc(Nc4nccc(Sc5cnc(N6CCC7(CC6)CO[C@@H](C)[C@H]7N)cn5)c4C#N)ncc3F)cc2n1C(C)C [Compound 19] | 0.7 | double-target inhibition activity [6]: better double-target inhibition activity
19 | 5 | 6.4 | 1.8 | Cc1nc2c(F)cc(-c3nc(Nc4nccc(Sc5cnc(N6CCC7(CC6)CO[C@@H](C)[C@H]7N)cn5)c4Cl)ncc3F)cc2n1C(C)C [Compound 14] | 0.6 | G0/G1 phase arrest [7]: better cycle G0/G1 phase arrest; G0/G1 phase arrest [8]: better cycle G0/G1 phase arrest; double-target inhibition activity [6]: better double-target inhibition activity
9 | > 1000 |  |  | Cc1nc2c(F)cc(-c3nc(Nc4cc(Cl)c(Sc5cnc(N6CCC7(CC6)CO[C@@H](C)[C@H]7N)cn5)cn4)ncc3F)cc2n1C(C)C [Compound 21] |  | 
 |  | > 20 | > 20 | C[C@@H]1OCC2(CCN(c3cnc(Sc4ccnc(N)c4Cl)c(N)n3)CC2)[C@@H]1N [TNO155, reference compound] | 7 | 
31 | > 1000 |  |  | Cc1nc2c(F)cc(-c3nc(Nc4ccc(Sc5cnc(N6CCC(C)(N)CC6)cn5)c(C#N)n4)ncc3F)cc2n1C(C)C [Compound 11] |  | 
> 1000 | > 1000 |  |  | Cc1nc2c(F)cc(-c3nc(Nc4cc(Sc5cnc(N6CCC7(CC6)CO[C@@H](C)[C@H]7N)cn5)c(Cl)cn4)ncc3F)cc2n1C(C)C [Compound 17] |  | 
145 | > 1000 |  |  | Cc1nc2c(F)cc(-c3nc(Nc4ccc(Sc5cnc(N6CCC7(CC6)CO[C@@H](C)[C@H]7N)cn5)c(Cl)n4)ncc3F)cc2n1C(C)C [Compound 15] |  | 
905 | > 1000 |  |  | CN(C)C(=O)c1cc2cnc(Nc3nccc(Sc4cnc(N5CCN([C@H]6Cc7ccccc7[C@H]6N)CC5)cn4)c3Cl)nc2n1C1CCCC1 [Compound 8] |  | 
9 | > 1000 |  |  | CN(C)C(=O)c1cc2cnc(Nc3ccc(Sc4cnc(N5CCC(C)(N)CC5)cn4)cn3)nc2n1C1CCCC1 [Compound 2] |  | 
 | > 1000 |  |  | CN(C)C(=O)c1cc2cnc(Nc3ccc(Sc4cnc(N5CCC(C)(N)CC5)cn4)c(Cl)n3)nc2n1C1CCCC1 [Compound 16] |  | 
17 | 48 | 5.1 | 9.6 | Cc1nc2c(F)cc(-c3nc(Nc4cc(Sc5cnc(N6CCC7(CC6)CO[C@@H](C)[C@H]7N)cn5)ccn4)ncc3F)cc2n1C(C)C [Compound 26] | 1.1 | double-target inhibition activity [6]: better double-target inhibition activity
538 | 36 |  |  | CN(C)C(=O)c1cc2cnc(Nc3ccc(Sc4cnc(N5CCC6(CC5)Cc5ccccc5[C@H]6N)cn4)c(Cl)n3)nc2n1C1CCCC1 [Compound 9] |  | 
 | 10 | 4.4 | 5.9 | Cc1nc2c(F)cc(-c3nc(Nc4nccc(Sc5cnc(N6CCC7(CC6)Cc6ccccc6[C@H]7N)cn5)c4Cl)ncc3F)cc2n1C(C)C [Compound 10] | 1.1 | double-target inhibition activity [6]: better double-target inhibition activity
> 1000 | 4 |  |  | CN(C)C(=O)c1cc2cnc(Nc3nccc(Sc4cnc(N5CCC6(CC5)Cc5ccccc5[C@H]6N)cn4)c3Cl)nc2n1C1CCCC1 [Compound 5] |  | 
